Reference: patent US12161632B2, “Compositions and methods of treating cardiac fibrosis with ifetroban” (Cumberland Pharmaceuticals Inc., priority 2014, dated 2024)
Entries after “also recorded” stand apart in the source; their conditions may differ. Like-named read-outs stand apart in the source and are kept apart here.

Experiments:
[1] = system: right ventricle gene expression; experiment: Right ventricle gene expression, Affymetrix Mouse Gene 2.0 arrays (Example IV); assay type: in vivo, mice; conditions: banded mice, 25 mg/kg/day, 2 weeks
Experimental: FVB/N mice or mice with a GFP macrophage-specific lineage tracing marker (LysM-Cre) underwent pulmonary banding to directly increase load stress (or sham surgery for controls), and starting the following day received either vehicle or the thromboxane receptor antagonist Ifetroban sodium in their drinking water (25 mg/kg/day). After 2 weeks, noninvasive hemodynamics were obtained by transthoracic echocardiography and invasive hemodynamics were obtained by pressure-volume catheterization of the right heart prior to sacrifice. Hearts were assessed for fibrosis and macrophage infiltration. RNA from right ventricles were isolated and used for unbiased discovery of altered gene expression using Affymetrix Mouse Gene 2.0 arrays performed on four groups (banded or sham). LysM-Cre mouse hearts were flash-frozen whole, cross-sectioned, and assessed by microscopy for fibrosis and macrophage infiltration. Differences between groups were assessed by ANOVA and t-tests. Correlations were assessed by Spearman correlation.

[2] = system: pulmonary artery banded wild-type mice; experiment: Pulmonary artery banding, two or six weeks of treatment: histology and echocardiography (Example VI); assay type: in vivo; conditions: PAB mice, 30 mg/kg/day, 6 weeks
Experimental: Wild-type mice underwent pulmonary artery banding followed by two weeks or six weeks of treatment with ifetroban (30 mg/kg/day via the drinking water) vs. control (plain drinking water). The pulmonary artery band mimics pulmonary hypertension and right heart failure.

[3] = system: pulmonary artery banding (PAB) model of right ventricular pressure overload; experiment: PAB model of right ventricular pressure overload: hemodynamics, echocardiography, histology (Example VII); assay type: in vivo; conditions: PAB mice; for RV fibrosis / fibrotic area (Masson's trichrome): ifetroban 25 mg/kg/day in drinking water; for cardiomyocyte diameter / cellular hypertrophy: ifetroban 25 mg/kg/day
Experimental: Both male and female age-matched C57Bl/6 or FVB/NJ mice, obtained by in-house breeding, were used for pulmonary artery banding. LysM-GFP mice were obtained by cross-breeding LysM-Cre×mTomato/GFP reporter mice B6.129P2-Lyz2tm1(cre)Ifo/J (a gift from Tim Blackwell)×Gt(ROSA)26Sortm4(ACTB-tdTomato, -EGFP)Luo (JAX stock #007676). The day following surgery, mice were given either 25 mg/kg/day IFETROBAN (Cumberland Pharmaceuticals Inc., Nashville, TN) in drinking water or normal drinking water (vehicle) for 2 weeks or 6 weeks prior to hemodynamic evaluation. Mice were weighed and water was changed once a week.
An RVSP of 30 mmHg was used to define PAH, and only samples from mice at or above this threshold were used for analysis of PAB groups. […] Two weeks after PAB, fibrosis in the RV of untreated mice has increased from <5% to […] (blue stain) in histologic sections of frozen RV stained with Masson's trichrome.
In the previous experiments, there was an increase in RV mass but not yet any change in cardiac output or other functional parameters, apart from E/A wave ratio, following PAB. To determine whether the decrease in fibrosis seen with TP receptor antagonism leads to increased preservation of cardiac function, the period following PAB-induced pressure overload was extended to 6 weeks and dosing with ifetroban was continued to 6 weeks, as well. […] This was associated with a decreased ejection fraction and decreased fractional shortening, signs of cardiac failure. All of these were prevented in PAB mice that received ifetroban, despite similar RVSP. Mice underwent sham surgery or PAB and echocardiography and pressure-loop catheterization performed after 6 weeks. End diastolic and systolic volume of the left ventricle were measured using the average of values calculated using both spherical and cylindrical models. Also obtained from echocardiography were the left ventricular stroke volume and ejection fraction, as well as percent fractional shortening.

RV gene expression = experiment: Gene expression arrays on pooled RV from sham or PAB mice (Example VII); assay type: in vivo
Text: To determine the mechanism through which ifetroban reduced fibrosis and protected RV contractility, we performed gene expression arrays on sets of pooled RV from mice with sham or PAB surgery, with and without drug treatment. By principal components analysis strong effect of banding was found, and an effect of ifetroban only in mice that had undergone banding. […] In particular, there were changes in gene expression associated with adhesion, collagen organization, extracellular structure, and developmental processes.

[4] = system: RV proteins (TP receptor, MHC, phospho-SMAD2/3, TSP-4); conditions: for TSP-4 protein expression in RV: high dose 25 mg/kg/day
Experimental: Mice underwent pulmonary arterial banding (PAB) or sham surgery, and were treated for 2 weeks with vehicle or ifetroban (competitive antagonist of TPα/TPβ) in the drinking water.
The effect of ifetroban treatment on known fibrotic and anti-fibrotic signaling pathways was examined.
In another arm of this example, low dose (3 mg/kg/day) ifetroban was administered to mice via the drinking water for 2 weeks following pulmonary artery banding.

[5] = system: cultured cardiomyocytes given exogenous TGF-ß; experiment: TGF-ß signalling in cultured cardiomyocytes (PAI-1 expression, promoter luciferase); assay type: cell-based; conditions: compared to vehicle-treated cells
[6] = system: pulmonary artery banding (PAB) model of right ventricular pressure overload; experiment: PAB model of right ventricular pressure overload: hemodynamics, echocardiography, histology (Example VII); assay type: in vivo; conditions: PAB mice, low dose 3 mg/kg/day via drinking water, 2 weeks
[7] = system: α and ß isoforms of the TP receptor; conditions: cited from earlier work
[8] = PAB mice, 25 mg/kg/day, 2 weeks
[9] = only in the context of pressure overload

With CCCCCNC(=O)c1coc([C@H]2[C@@H](Cc3ccccc3CCC(=O)O)[C@@H]3CC[C@H]2O3)n1 [ifetroban, [1S-(1α,2α,3α,4α)]-2-[[3-[4-[(Pentylamino)carbonyl]-2-oxazolyl]-7-oxabicyclo[2.2.1]hept-2-yl]methyl]-benzenepropanoic acid] the “anti-fibrotic pathways (THBS4, Asporin, LTBP2), expression arrays” value [1] was “induction of anti-fibrotic pathways including THBS4 and TGF-beta inhibitors Asporin and LTBP2”, the “pathways related to functional hypertrophy, expression arrays” value [1] was “induction of pathways related to functional hypertrophy” and the “pro-fibrotic pathways (PDGF-D, FBXO32), expression arrays” value [1] was “reduction of pro-fibrotic pathways such as PDGF-D and FBXO32”. For the same molecule, the “cardiomyocyte diameter in the right ventricle” value [2] was “protected against increases in cardiomyocyte diameter”, the “echocardiography, left ventricular cardiac function (end diastolic/systolic volume, stroke volume, ejection fraction, fractional shortening)” value [2] was “cardiac function values similar to the animals that underwent sham surgery; also recorded: echo values similar to sham surgery animals” and the right ventricular fibrosis [2] was “reduced right ventricular fibrosis”. For the same molecule, the “RV mass (ratio of right ventricular weight to left ventricle+septum weight)” value ([3]; 25 mg/kg/day, 2 weeks) was “similarly increased in vehicle- and ifetroban-treated PAB groups; also recorded: not blocked”, the “tricuspid E/A wave ratio (echocardiography)” value ([3]; 25 mg/kg/day, 2 weeks, p<0.05 by ANOVA) was “increased; also recorded: improved” and the “RV mass (ratio of right ventricular weight to left ventricle+septum weight)” value ([3]; 25 mg/kg/day, 2 weeks, listed as Ifetroban) was “allowing increased RV mass”. For the same molecule, the “signs of cardiac failure (left ventricular dilation, increased stroke volume, decreased ejection fraction and fractional shortening)” value ([3]; 25 mg/kg/day, 6 weeks) was “more functional adaptation and decreased indications of cardiac failure; also recorded: prevented”, the “RV fibrosis / fibrotic area (Masson's trichrome)” value (“RV fibrosis / fibrotic area” below) ([3]; 2 weeks) was “almost completely abolished” and the “RV fibrosis / fibrotic area” value ([3]; 2 weeks, listed as Ifetroban) was “near normalization of fibrotic area”. For the same molecule, the “RV fibrosis / fibrotic area” value ([3]; 2 weeks, listed as ifetrobn) was “antifibrotic effect”, the “cardiomyocyte diameter / cellular hypertrophy” value ([3]; 2 weeks) was “blocked” and the “cardiomyocyte diameter / cellular hypertrophy” value ([3]; 2 weeks, listed as Ifetroban) was “prevented cellular hypertrophy”. For the same molecule, the “protection against pressure overload” value ([3]; ifetroban, two weeks following PAB) was “protected against pressure overload”, the “principal components analysis of RV gene expression” value (RV gene expression; 25 mg/kg/day, 2 weeks) was “strong effect of ifetroban only in mice with banding” and the “Thbs4 expression (mRNA)” value (RV gene expression; PAB RV only) was “strongly enhances”. The “expression of antifibrotic genes” value (RV gene expression; PAB mice) was “increased expression”, the “expression of genes associated with fibrosis” value (RV gene expression; PAB mice) was “reduced expression” and the “expression of genes associated with myogenic differentiation” value (RV gene expression; PAB mice versus banded controls) was “enhanced”. The “RV expression of Cd14, Tlr8 and other pro-inflammatory genes” value (RV gene expression; [8]) was “decreased RV expression”, the “expression of genes associated with inflammatory cell recruitment” value (RV gene expression; [9]) was “reduced expression” and the “genes associated with adaptive remodeling” value (RV gene expression; [9]) was “ifetroban-induced genes associated with adaptive remodeling”. For the same molecule, the “gene expression in mice with only sham surgeries” value (RV gene expression; sham, 25 mg/kg/day, 2 weeks) was “did not significantly change gene expression”, the “TP receptor expression in the RV (Western blot)” value ([4]; 2 weeks following PAB or drug treatment) was “remained constant” and the “phospho-SMAD2/3 associated with PAB” value ([4]; PAB mice versus vehicle-treated mice) was “less phospho-SMAD2/3”. The “localization of TSP-4 in RV” value ([4]; PAB mice, 25 mg/kg/day) was “increased cardiomyocyte expression of TSP-4”, the “α-MHC protein expression in RV (Western blot)” value [4, 8] was “no change in α-MHC expression” and the “β-MHC protein expression in RV (Western blot)” value [4, 8] was “strongly induced”. For the same molecule, the “induction of the pro-fibrotic TGF-beta pathway” value ([4]; PAB mice, 2 weeks) was “blocked induction”, the “TSP-4 protein expression in RV” value ([4]; PAB mice, 2 weeks, 25 mg/kg/day) was “increased TSP-4 protein; also recorded: increases the expression of antifibrotic TSP-4” and the “TSP-4 protein expression in RV” value ([4]; PAB mice, 2 weeks, listed as Ifetroban, 25 mg/kg/day) was “increased expression of anti-fibrotic thrombospondin-4”. The “TSP-4 expression in RV (Western blot densitometry)” value ([4]; PAB mice, low dose 3 mg/kg/day, 2 weeks) was “does not”, the “PAI-1 expression or promoter activity” value [5] was “no change” and the “fibrosis of the right ventricle (histology)” value [6] was “does not prevent fibrosis”. For the same molecule, the “blockade of TPα and TPβ receptor isoforms” value [7] was “effectively blocked”.
